Like-named read-outs stand apart in the source and are kept apart here. One block for each molecule: values may come before it. Where a SMILES comes first, the peptide text is derived from it. Bridges are numbered along the chain shown (N, C = ends). Where no end group is shown, it is not given here. [ ]: non-standard residue; d: D form.
What was measured:
[1] = molecular target: E2F-1/Cyclin A interaction (Homo sapiens, UniProt P20248); assay: E2F-1/Cyclin A/cdk2 ELISA; format: binding
Protocol: An ELISA was developed to identify antagonists of E2F-1/Cyclin A interaction. This method is based on interactions between three proteins, E2F-1, Cyclin A and cdk2 and is analyzed colorimetrically. This assay was used to determine IC50 values for various synthetic peptides that were used in biological experiments and for SAR studies.
This assay allows determination of IC50 values for various synthetic peptides that were used in biological experiments or for SAR studies.
Nunc Immulon II ELISA plates are coated overnight at 4° C. with 250 μL of […] anti-GST antibody (Pharmacia Biotech) in bicarbonate buffer. Following five washes with wash buffer consisting of 50 mM Tris (pH=7.5), 0.15 M NaCl, and 0.01% Tween-20 (TBST), non-specific sites were blocked for 2 hr at room temperature with 300 μL of assay buffer consisting of 50 mM HEPES (pH=7.5), 0.15 M NaCl, 0.1% Triton X-100, and 5% bovine serum albumin (BSA). Plates were then washed five times in TBST, aspirated dry, and treated with 100 μL of GST-E2F-1 in TBS (25 nM). GST-E2F-1 was incubated at RT for at least 1 hr with non-specific binding (NSB) control wells receiving assay buffer with no protein. Plates were washed five times in TBST and multiple concentrations of test compounds diluted in assay buffer were co-incubated with 5 nM Cyclin A/cdk2 diluted in assay buffer. The Cyclin A/cdk2 complex was freshly prepared by mixing a 1:1 ratio of the two proteins in TBS at 4° C. for 30 min prior to addition to the assay plate. Following incubation for 2 hr at RT, plates were washed five times in TBST, and 100 μL of a 1:500 dilution of a rabbit anti-cdk2 antibody (Santa Cruz) diluted in assay buffer and were added to all wells. Following incubation for at least 1 hr at RT or overnight at 4° C., the plates were washed five times in TBST and 100 μL of a 1:1000 dilution of a HRP-conjugated anti-rabbit IgG antibody (Pierce) were added to all wells. Following a half hour incubation at RT, the plates were washed five times in TBST, aspirated dry, and developed by the addition of 100 μL of a HRP substrate ABTS prepared in sodium citrate buffer (pH=4.2). After 10-15 min, absorbance is read using a microplate reader at 405 nm.

[2] = system: MDA-MB-435 cells; assay: Growth inhibition (MTS assay), MDA-MB-435; format: cell-based, Human; details: MDA-MB-435, 24 hr
Description: (§1) Evaluation of Growth Inhibition.

[3] = system: WI38/VA13 SV40 cells; details: read-out: IC50 growth inhibition; WI38/VA13 SV40, 24 hr, MTS
Protocol: (§4) Evaluation of Growth Inhibition. 3×10^3 cells/well were plated on a 96 well plate at 10% FCS and cultured overnight. The culture medium was discarded, and the cells were washed once with Opti-MEM. The cell monolayers were incubated at 37° C. with peptide solutions at various concentrations for 24 hr. The growth inhibition was evaluated using solutions composed of 3-(4,5-dimethylthiazol-2-yl)-5-(3-carboxymethoxyphenyl)-2-(4-sulfophenyl)-2H-tetrazolium; MTS (from Promega) and phenazine methosulfate; PMS (from Sigma).

[4] = system: MDA-MB-231 cells; details: read-out: IC50 growth inhibition; MDA-MB-231, 24 hr, MTS
Protocol: (§5) MDA-MB-435, U2OS, A549, MDA-MB-231 cells were maintained in DMEM supplemented with 10% FCS. SW480 and HCT-116 were grown in RPMI 1640 supplemented with 10% FCS.
as §4

[5] = system: U2OS cells; assay: Growth inhibition (MTS assay), U2OS; format: cell-based, Human; details: for IC50: 24 hr, MTS; for cell morphology: beginning at about 3 hr post-treatment; for inhibition as measured by the MTS assay: asynchronous culture of U2OS
Description: as §1

[6] = system: A549 cells; assay: Growth inhibition (MTS assay), A549; format: cell-based, Human; details: A549, 24 hr
Description: as §1

[7] = system: U2OS cells; assay: Uptake and intracellular compartmentalization (fluorescence microscopy), U2OS; format: cell-based, Human; details: 30 and 100 μM, 24 hr
Protocol: (§2) Peptide Treatment and Fluorescence Microscopy. 4×10^4 cells/well were plated on a 48 well plate at 10% FCS and cultured overnight. […] For detection of fluorescein-labeled peptides, cells were rinsed once with PBS (pH=7.3) and visualized using a fluorescence microscope (Axiovert 135 at 320×).
(§3) Uptake and Intracellular Compartmentalization of Tat Peptides. The internalization of the Tat-mt peptide labeled with fluorescein maleimide on the cysteine residue was investigated. The labeled peptide was verified by mass spectrometry and purified by HPLC before use. […] We further repeated the experiments with incubation of the peptide at 30 and 100 μM for 24 hr in osteosarcoma U2OS cells. […] The peptide was tested under the same conditions after direct labeling with fluorescein maleimide. No variation in the amount and localization of the internalized peptide was observed as compared with the Tat-peptide.

[8] = system: MDA-MB-435 cells; assay: Uptake and intracellular compartmentalization (fluorescence microscopy), MDA-MB-435; format: cell-based, Human; details: MDA-MB-435, after 30 min of incubation
Protocol: as §2, §3

[9] = system: SW480 cells; details: read-out: IC50 growth inhibition; SW480, 24 hr, MTS
Protocol: as §5, §4

[10] = system: HeCat cells; details: read-out: IC50 growth inhibition, 24 hr, MTS
Protocol: as §4

[11] = system: HCT-116 cells; details: read-out: IC50 growth inhibition; HCT-116, 24 hr, MTS
Protocol: as §5, §4

[12] = system: Rat1 cells; details: read-out: IC50 growth inhibition; Rat1, 24 hr, MTS
Protocol: as §4

[13] = linear peptide, read-out: IC50 Linear
[14] = E2F-1/Cyclin A/cdk2 ELISA, read-out: IC50
[15] = cyclic peptides, read-out: ELISA IC50
[16] = cyclized between side-chain amino group of Lys* and carboxyl group of Gly*, read-out: IC50 Cyclic
[17] = original identified sequences (linear), read-out: IC50

IC50 [1, 13]: 30000 nM
Molecule: CC(=O)N[C@@H](CCCN=C(N)N)C(=O)N[C@@H](CCCCN)C(=O)N[C@@H](CC(C)C)C(=O)N[C@@H](Cc1ccccc1)C(=O)NCC(=O)O [Ac-Arg-Lys-*Leu-Phe-Gly* (Linear), Ac-Arg-Lys-*Leu-Phe-Gly*]

Molecule: CC(C)C[C@@H]1NC(=O)[C@@H](NC(=O)[C@H](CCCNC(=N)N)NC(=O)[C@H](CCCCN)NC(=O)[C@H](C)NC(=O)[C@@H]2CCCN2C(=O)CNC(=O)[C@H](CCCNC(=N)N)NC(=O)[C@H](CCCNC(=N)N)NC(=O)[C@H](CCCNC(=N)N)NC(=O)[C@H](CCC(N)=O)NC(=O)[C@H](CCCNC(=N)N)NC(=O)[C@H](CCCNC(=N)N)NC(=O)[C@H](CCCCN)NC(=O)[C@H](CCCCN)NC(=O)[C@H](CCCNC(=N)N)NC(=O)CNC(=O)[C@@H](N)Cc2ccc(O)cc2)CCCCNC(=O)CNC(=O)[C@H](Cc2ccccc2)NC1=O [Tat-cyclic, YGRKKRRQRRRG PAKR(KLFG)] (H-YGRKKRRQRRRGPAKRKLFG; lactam 17-C)
IC50 [1]: 100 to 1000 nM
IC50 [2]: 6 to 7 µM
IC50 [3]: 6 to 7 µM
IC50 [4]: 6 to 7 µM
IC50 ([5]; U2OS): 6 to 7 µM
cell morphology ([5]; U2OS): rounded morphology
inhibition as measured by the MTS assay [5]: dose-dependent inhibition
IC50 [6]: 26 to 46 µM

IC50 [1, 14]: 1 nM
IC50 [1, 15]: 1 nM
IC50 [1, 16]: 1 nM
Molecule: CC(C)C[C@@H]1NC(=O)[C@@H](NC(=O)[C@H](CCCNC(=N)N)NC(=O)[C@H](CCCCN)NC(=O)[C@H](C)NC(=O)[C@H]2CCCN2)CCCCNC(=O)CNC(=O)[C@H](Cc2ccccc2)NC1=O [compound 2, Pro-Ala-Lys-Arg-(Lys-Leu-Phe-Gly)] (H-[dP]AKRKLFG; lactam 5-C)

IC50 [1, 15]: 10 nM
IC50 [1, 16]: 10 nM
Molecule: CC(=O)N[C@@H](C)C(=O)N[C@@H](CCCCN)C(=O)N[C@@H](CCCNC(=N)N)C(=O)N[C@H]1CCCCNC(=O)CNC(=O)[C@H](Cc2ccccc2)NC(=O)[C@H](CC(C)C)NC1=O [compound 3, Ac-Ala-Lys-Arg-(Lys-Leu-Phe-Gly)] (Ac-AKRKLFG; lactam 4-C)

IC50 [1, 14]: 20 nM
IC50 [1, 15]: 20 nM
IC50 [1, 16]: 20 nM
Molecule: CC(=O)N[C@@H](CCCCN)C(=O)N[C@@H](CCCNC(=N)N)C(=O)N[C@H]1CCCCNC(=O)CNC(=O)[C@H](Cc2ccccc2)NC(=O)[C@H](CC(C)C)NC1=O [compound 4, Ac-Lys-Arg-(Lys-Leu-Phe-Gly)] (Ac-KRKLFG; lactam 3-C)

IC50 [1, 13]: 200 nM
Molecule: Ac-AKRKLFG [Ac-Ala-Lys-Arg-Lys-*Leu-Phe-Gly*]

IC50 [1, 13]: 1000 nM
Molecule: Ac-KRKLFG [Ac-Lys-Arg-Lys-*Leu-Phe-Gly* (Linear), Ac-Lys-Arg-Lys-*Leu-Phe-Gly*]

Molecule: FluMalCXYGRKKRRQRRRG PVKARLDL [FITC-Tat-mt]
penetration to the nucleus [7]: 100%
intracellular localization [8]: mainly recovered from the nucleus with a nucleolar accumulation

IC50 [1, 13]: 100 nM
IC50 [1, 17]: 100 nM
Molecule: PAKRKLFG [Pro-Ala-Lys-Arg-Lys-Leu-Phe-GIy]

IC50 [1, 17]: 200 nM
Molecule: SACRNLFG [reference compound]

Molecule: YGRKKRRQRRRG [Tat, reference compound]
failed to cause any morphological changes and MTS reading up to ([5]; U2OS): > 300 μM

Molecule: YGRKKRRQRRRGPVKRRLDL [Tat-linear, YGRKKRRQRRRG PVKRRLDL]
IC50 [1]: 100 to 1000 nM
IC50 [9]: 26 µM
IC50 [10]: > 100 µM
IC50 [2]: 48 to 50 µM
IC50 [11]: 80 µM
IC50 ([5]; U2OS): 28 to 40 µM
cell morphology ([5]; U2OS): rounded morphology
inhibition as measured by the MTS assay [5]: dose-dependent inhibition
IC50 [12]: > 100 µM
